PMC9363231, “High‐resolution analysis of individual spike peptide‐specific CD4 ^+ T‐cell responses in vaccine recipients and COVID‐19 patients” (Clinical & Translational Immunology, 2022)

Columns and labels:
Experiment in all cases: biochemical
Type in all cases: binding
HLA-DRB1*03:01 = HLA-DRB1*03:01 (Homo sapiens, UniProt P01903+P01911, A100K/A102G/A103R/A169T/F55Y/I96L/K41T/L162R/M171V/P40S/Q125H/Q178H/Q39Y/R42S/S66N/T106N/T262R/W38E/Y61H)
HLA-DRB1*13:02 = HLA-DRB1*13:02 (Homo sapiens, UniProt P01903+P01911, A100E/A169T/K41T/L162R/M171V/P40S/Q125H/Q178H/Q39Y/Q99D/R42S/S66N/T262R/V115G/W38E/Y61H)
HLA-DRB1*15:01 = HLA-DRB1*15:01 (Homo sapiens, UniProt P01903+P01911)
HLA-DRB1*04:05 = HLA-DRB1*04:05 (Homo sapiens, UniProt P01903+P01911, A100R/A169T/D86S/F76Y/I96L/K127E/L162R/M171V/N62H/P40V/Q125Y/R42H/S133A/S149N/S66Y/V115G/V209L/W38E)
HLA-DRB1*07:01 = HLA-DRB1*07:01 (Homo sapiens, UniProt P01903+P01911, A100R/A102G/A103Q/D57E/D86V/E43K/F76Y/K127E/L162R/M171V/P40G/Q125H/Q99D/R33Q/R42Y/R54Q/S133A/S66F/T210M/V115G/Y107V/Y59L/Y89S)
HLA-DRB1*09:01 = HLA-DRB1*09:01 (Homo sapiens, UniProt P01903+P01911, A100R/A103E/D57H/D86V/F55Y/F60I/F76Y/I96F/K127E/L162R/M171V/P40D/Q125H/Q99R/R33Q/R42F/S133A/S66N/T210M/V115G/W38K/Y107V/Y59G/Y89S)
HLA-DRB1*04:01 = HLA-DRB1*04:01 (Homo sapiens, UniProt P01903+P01911, A100K/A169T/F76Y/I96L/K127E/L162R/M171V/N62H/P40V/Q125Y/R42H/S133A/S149N/S66Y/V115G/V209L/W38E)
HLA-DRB1*11:01 = HLA-DRB1*11:01 (Homo sapiens, UniProt P01903+P01911, A100R/A169T/A87E/I96F/K41T/L162R/M171V/P40S/Q125H/Q178H/Q39Y/Q99D/R42S/S66Y/T262R/V115G/W38E)
HLA-DRB1*01:01 = HLA-DRB1*01:01 (Homo sapiens, UniProt P01903+P01911, A100R/D57E/F55L/F60I/F76Y/I96L/L162R/M171V/P40L/Q125E/R42F/V115G/Y59C)
HLA-DRB1*12:01 = HLA-DRB1*12:01 (Homo sapiens, UniProt P01903+P01911, A100R/A169T/D57E/D86V/F55L/H45Y/K41T/L162R/M171V/P40S/Q125H/Q178H/Q39Y/Q99D/R42G/S66L/T262R/V114A/V67L/W38E/Y59H/Y61H/Y89S)
HLA-DRB1*08:02 = HLA-DRB1*08:02 (Homo sapiens, UniProt P01903+P01911, A100R/A103L/A169T/F76Y/H45Y/I96F/K41T/L162R/M171V/P40S/Q125H/Q178H/Q39Y/Q99D/R218S/R42G/S66Y/V115G/W38E)

Chain of HLA-DRB1*03:01 (P01903 26-254, other chains not shown): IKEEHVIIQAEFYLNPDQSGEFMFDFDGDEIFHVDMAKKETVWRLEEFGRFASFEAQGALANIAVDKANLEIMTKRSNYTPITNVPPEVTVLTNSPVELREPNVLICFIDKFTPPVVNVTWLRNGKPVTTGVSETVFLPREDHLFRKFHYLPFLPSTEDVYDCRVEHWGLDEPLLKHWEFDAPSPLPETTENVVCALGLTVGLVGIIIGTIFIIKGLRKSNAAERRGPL
Chain of HLA-DRB1*11:01 (P01903 26-254 limits assumed, other chains not shown): as the sequence (P01903 26-254, other chains not shown) above
Chain of HLA-DRB1*13:02 (P01903 26-254 limits assumed, other chains not shown): as the sequence (P01903 26-254, other chains not shown) above

Row | Compound | IC50 (HLA-DRB1*03:01) | IC50 (HLA-DRB1*13:02) | IC50 (HLA-DRB1*15:01) | IC50 (HLA-DRB1*04:05) | IC50 (HLA-DRB1*07:01) | IC50 (HLA-DRB1*09:01) | IC50 (HLA-DRB1*04:01) | IC50 (HLA-DRB1*11:01) | IC50 (HLA-DRB1*01:01) | IC50 (HLA-DRB1*12:01) | IC50 (HLA-DRB1*08:02)
1 | CC[C@H](C)[C@H](NC(=O)CN)C(=O)N[C@@H](Cc1ccc(O)cc1)C(=O)N[C@@H](CCC(N)=O)C(=O)N[C@H](C(=O)N[C@@H](CO)C(=O)N[C@@H](CC(N)=O)C(=O)N[C@@H](Cc1ccccc1)C(=O)N[C@@H](CCCNC(=N)N)C(=O)N[C@H](C(=O)N[C@@H](CCC(N)=O)C(=O)N1CCC[C@H]1C(=O)N[C@H](C(=O)N[C@@H](CCC(=O)O)C(=O)N[C@@H](CO)C(=O)O)[C@@H](C)O)C(C)C)[C@@H](C)O [compound 63] | > 40000 nM | 10700 nM | 21 nM | 201 nM | 12 nM | 305 nM | 62 nM | 1140 nM | 2390 nM | 2070 nM | > 40000 nM
2 | CC[C@H](C)[C@H](NC(=O)[C@H](CCCNC(=N)N)NC(=O)[C@H](CCCCN)NC(=O)[C@H](CCCNC(=N)N)NC(=O)[C@H](CC(N)=O)NC(=O)[C@H](Cc1c[nH]c2ccccc12)NC(=O)[C@H](C)NC(=O)[C@H](Cc1ccc(O)cc1)NC(=O)[C@@H](NC(=O)[C@H](CO)NC(=O)[C@H](C)NC(=O)[C@H](Cc1ccccc1)NC(=O)[C@@H](N)CCCNC(=N)N)C(C)C)C(=O)N[C@@H](CO)C(=O)N[C@@H](CC(N)=O)C(=O)O [compound 70] | > 40000 nM | > 40000 nM | 136 nM | 6270 nM | 540 nM | 1380 nM | 7890 nM | 3.9 nM | 5930 nM | 31600 nM | 64 nM
3 | CSCC[C@H](NC(=O)[C@H](CC(C)C)NC(=O)[C@H](Cc1ccccc1)NC(=O)[C@@H]1CCCN1C(=O)[C@H](CCC(N)=O)NC(=O)[C@H](CO)NC(=O)[C@@H](NC(=O)[C@H](Cc1ccc(O)cc1)NC(=O)[C@H](CCC(=O)O)NC(=O)[C@H](Cc1ccccc1)NC(=O)[C@@H](NC(=O)[C@@H](N)CS)[C@@H](C)O)C(C)C)C(=O)N[C@@H](CC(=O)O)C(=O)N[C@@H](CC(C)C)C(=O)N[C@@H](CCC(=O)O)C(=O)O [peptide 34] | 5860 nM |  | 7240 nM | 16 nM |  |  | 1150 nM | 3380 nM | 495 nM | 416 nM | 1470 nM
4 | CC[C@H](C)[C@H](NC(=O)[C@H](CCCCN)NC(=O)[C@@H](N)Cc1ccccc1)C(=O)N[C@@H](Cc1ccc(O)cc1)C(=O)N[C@@H](CO)C(=O)N[C@@H](CCCCN)C(=O)N[C@@H](Cc1c[nH]cn1)C(=O)N[C@H](C(=O)N1CCC[C@H]1C(=O)N[C@H](C(=O)N[C@@H](CC(N)=O)C(=O)N[C@@H](CC(C)C)C(=O)N[C@H](C(=O)N[C@@H](CCCNC(=N)N)C(=O)N[C@@H](CC(=O)O)C(=O)O)C(C)C)[C@@H](C)CC)[C@@H](C)O [peptide 41] | > 40000 nM | 9040 nM | 611 nM | 16300 nM | 2.7 nM | 13 nM | 5250 nM | 229 nM | 64 nM | 7180 nM | 125 nM
5 | CC(C)C[C@H](NC(=O)[C@H](C)NC(=O)[C@H](CC(C)C)NC(=O)[C@H](CC(C)C)NC(=O)[C@@H](NC(=O)[C@H](CCC(N)=O)NC(=O)[C@H](Cc1ccccc1)NC(=O)[C@H](CCCNC(=N)N)NC(=O)[C@@H](N)[C@@H](C)O)[C@@H](C)O)C(=O)N[C@@H](Cc1c[nH]cn1)C(=O)N[C@@H](CCCNC(=N)N)C(=O)N[C@@H](CO)C(=O)N[C@@H](Cc1ccc(O)cc1)C(=O)N[C@@H](CC(C)C)C(=O)N[C@H](C(=O)O)[C@@H](C)O [peptide 48] | 13800 nM | 29900 nM | 5 nM | 794 nM | 3.9 nM | 11 nM | 337 nM | 14 nM | 38 nM | 18 nM | 177 nM
